From PubChem BioAssay (NCI)
“And” between values parts separate entries of the source, which are not always exact repeats. Identical values can stand only once.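 Interpolation was linear, between the two tested concentrations surrounding the appropriate level; five concentrations were tested over 48 hours in 96-well plates. The concentration for 50% growth inhibition is given as GI50. The concentration for full growth arrest is given as TGI.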

Experiments:
Assay in all cases: growth of human tumour cells (NCI), 48 h
786-0 renal = system: 786-0 renal
A498 renal = system: A498 renal
A549 NSCLC = system: A549 NSCLC
ACHN renal = system: ACHN renal
BT-549 breast = system: BT-549 breast
CAKI-1 renal = system: CAKI-1 renal
CCRF-CEM leukemia = system: CCRF-CEM leukemia
DU-145 prostate = system: DU-145 prostate
EKVX NSCLC = system: EKVX NSCLC
HCC-2998 colon = system: HCC-2998 colon
HCT-116 colon = system: HCT-116 colon
HCT-15 colon = system: HCT-15 colon
HL-60(TB) leukemia = system: HL-60(TB) leukemia
HOP-62 NSCLC = system: HOP-62 NSCLC
HOP-92 NSCLC = system: HOP-92 NSCLC
HS 578T breast = system: HS 578T breast
IGROV1 ovarian = system: IGROV1 ovarian
K-562 leukemia = system: K-562 leukemia
KM12 colon = system: KM12 colon
LOX IMVI melanoma = system: LOX IMVI melanoma
M14 melanoma = system: M14 melanoma
MALME-3M melanoma = system: MALME-3M melanoma
MCF7 breast = system: MCF7 breast
MDA-MB-231 breast = system: MDA-MB-231 breast
MOLT-4 leukemia = system: MOLT-4 leukemia
NCI-H226 lung = system: NCI-H226 lung
NCI-H23 lung = system: NCI-H23 lung
NCI-H460 lung = system: NCI-H460 lung
NCI-H522 lung = system: NCI-H522 lung
NCI/ADR-RES ovarian = system: NCI/ADR-RES ovarian
OVCAR-4 ovarian = system: OVCAR-4 ovarian
OVCAR-5 ovarian = system: OVCAR-5 ovarian
OVCAR-8 ovarian = system: OVCAR-8 ovarian
PC-3 prostate = system: PC-3 prostate
RPMI-8226 leukemia = system: RPMI-8226 leukemia
RXF 393 renal = system: RXF 393 renal
SF-268 CNS = system: SF-268 CNS
SF-295 CNS = system: SF-295 CNS
SF-539 CNS = system: SF-539 CNS
SK-MEL-28 melanoma = system: SK-MEL-28 melanoma
SK-MEL-5 melanoma = system: SK-MEL-5 melanoma
SK-OV-3 ovarian = system: SK-OV-3 ovarian
SN12C renal = system: SN12C renal
SNB-19 CNS = system: SNB-19 CNS
SNB-75 CNS = system: SNB-75 CNS
SR leukemia = system: SR leukemia
SW-620 colon = system: SW-620 colon
T-47D breast = system: T-47D breast
TK-10 renal = system: TK-10 renal
U251 CNS = system: U251 CNS
UACC-257 melanoma = system: UACC-257 melanoma
UACC-62 melanoma = system: UACC-62 melanoma
UO-31 renal = system: UO-31 renal
COLO 205 colon = system: COLO 205 colon
HT29 colon = system: HT29 colon
MDA-MB-435 = system: MDA-MB-435
OVCAR-3 ovarian = system: OVCAR-3 ovarian
SK-MEL-2 melanoma = system: SK-MEL-2 melanoma

For COc1ccc(-c2nc3sc4c(c3c(=O)[nH]2)CCCC4)c2ccccc12, the TGI (786-0 renal) was 3800 nM, the TGI (A498 renal) was 765 nM and 87.1 nM and the GI50 (A549 NSCLC) was 420 nM. The GI50 (ACHN renal) was 755 nM, the TGI (BT-549 breast) was 6080 nM and 3470 nM and the GI50 (CAKI-1 renal) was 450 nM. The TGI (CCRF-CEM leukemia) was over 100000 nM, the TGI (DU-145 prostate) was 17500 nM and the GI50 (EKVX NSCLC) was 1800 nM. For the same molecule, the TGI (HCC-2998 colon) was 79100 nM, the GI50 (HCT-116 colon) was 371 nM and the TGI (HCT-15 colon) was over 100000 nM. It also gave a GI50 (HL-60(TB) leukemia) of 301 nM, a TGI (HL-60(TB) leukemia) of 2040 nM and a GI50 (HOP-62 NSCLC) of 629 nM. The GI50 (HOP-92 NSCLC) was 95.7 nM and 599 nM, the TGI (HOP-92 NSCLC) was 2370 nM and 7900 nM and the TGI (HS 578T breast) was 93 nM. The TGI (IGROV1 ovarian) was over 100000 nM, the TGI (K-562 leukemia) was over 100000 nM and the TGI (KM12 colon) was over 100000 nM. For the same molecule, the TGI (LOX IMVI melanoma) was over 100000 nM, the TGI (M14 melanoma) was 630 nM and 135 nM and the GI50 (MALME-3M melanoma) was 749 nM. The TGI (MALME-3M melanoma) was 9030 nM, the TGI (MCF7 breast) was over 100000 nM and the TGI (MDA-MB-231 breast) was over 100000 nM. It also gave a TGI (MOLT-4 leukemia) of over 100000 nM, a GI50 (NCI-H226 lung) of 1410 nM and a GI50 (NCI-H23 lung) of 570 nM. For the same molecule, the GI50 (NCI-H460 lung) was 381 nM, the TGI (NCI-H522 lung) was 17.9 nM and the TGI (NCI/ADR-RES ovarian) was 4950 nM and 2750 nM. The GI50 (OVCAR-4 ovarian) was 2230 nM, the GI50 (OVCAR-5 ovarian) was 301 nM and the TGI (OVCAR-5 ovarian) was 4590 nM. The GI50 (OVCAR-8 ovarian) was 474 nM and 47.5 nM, the TGI (OVCAR-8 ovarian) was over 100000 nM and the GI50 (PC-3 prostate) was 343 nM and 37.1 nM. The TGI (PC-3 prostate) was over 100000 nM, the TGI (RPMI-8226 leukemia) was over 100000 nM and the GI50 (RXF 393 renal) was 253 nM. It also gave a TGI (RXF 393 renal) of 799 nM, a TGI (SF-268 CNS) of over 100000 nM and a GI50 (SF-295 CNS) of 314 nM. For the same molecule, the TGI (SF-295 CNS) was 1200 nM, the GI50 (SF-539 CNS) was 211 nM and 21.3 nM and the TGI (SF-539 CNS) was 544 nM and 74.6 nM. It also gave a GI50 (SK-MEL-28 melanoma) of 468 nM, a TGI (SK-MEL-5 melanoma) of 5520 nM and a TGI (SK-OV-3 ovarian) of 3740 nM. The GI50 (SN12C renal) was 514 nM and 70.2 nM, the TGI (SN12C renal) was over 100000 nM and the GI50 (SNB-19 CNS) was 411 nM and 46.7 nM. The TGI (SNB-19 CNS) was over 100000 nM, the TGI (SNB-75 CNS) was 792 nM and 1610 nM and the GI50 (SR leukemia) was 418 nM. For the same molecule, the TGI (SW-620 colon) was over 100000 nM, the GI50 (T-47D breast) was 4820 nM and 2850 nM and the TGI (T-47D breast) was over 100000 nM. For the same molecule, the GI50 (TK-10 renal) was 3530 nM, the GI50 (U251 CNS) was 369 nM and the GI50 (UACC-257 melanoma) was 1560 nM and 4950 nM. The TGI (UACC-257 melanoma) was over 100000 nM, the TGI (UACC-62 melanoma) was 16300 nM and the GI50 (UO-31 renal) was 590 nM.
For COc1cc2c3c(n(C)c(=O)c2cc1OC)-c1cc2c(cc1/C3=C/[C@H](N)CCCCN)OCO2, the GI50 (786-0 renal) was 1680 nM, the TGI (786-0 renal) was 18000 nM and the GI50 (A498 renal) was 4720 nM. The TGI (A498 renal) was 22700 nM, the GI50 (A549 NSCLC) was 622 nM and the TGI (A549 NSCLC) was 24500 nM. For the same molecule, the GI50 (ACHN renal) was 637 nM, the TGI (ACHN renal) was 3160 nM and the TGI (BT-549 breast) was 2570 nM. For the same molecule, the GI50 (CAKI-1 renal) was 1230 nM, the TGI (CAKI-1 renal) was 11500 nM and the GI50 (CCRF-CEM leukemia) was 52.6 nM. It also gave a TGI (CCRF-CEM leukemia) of over 100000 nM, a GI50 (COLO 205 colon) of 1180 nM and a TGI (COLO 205 colon) of over 19800 nM. It also gave a GI50 (DU-145 prostate) of 1070 nM, a TGI (DU-145 prostate) of 50000 nM and a GI50 (EKVX NSCLC) of 5930 nM. It also gave a TGI (EKVX NSCLC) of over 24800 nM, a GI50 (HCT-116 colon) of 564 nM and a TGI (HCT-116 colon) of 2240 nM. The GI50 (HCT-15 colon) was 6800 nM, the TGI (HCT-15 colon) was over 86400 nM and the GI50 (HL-60(TB) leukemia) was 13400 nM. For the same molecule, the TGI (HL-60(TB) leukemia) was over 100000 nM, the GI50 (HOP-62 NSCLC) was 1340 nM and the TGI (HOP-62 NSCLC) was 11600 nM. The GI50 (HOP-92 NSCLC) was 4480 nM, the TGI (HOP-92 NSCLC) was over 50900 nM and the GI50 (HS 578T breast) was 2520 nM. It also gave a TGI (HS 578T breast) of 17400 nM, a GI50 (HT29 colon) of 1650 nM and a TGI (HT29 colon) of over 100000 nM. The GI50 (IGROV1 ovarian) was 1270 nM, the TGI (IGROV1 ovarian) was 7430 nM and the GI50 (K-562 leukemia) was 4680 nM. For the same molecule, the TGI (K-562 leukemia) was over 100000 nM, the GI50 (KM12 colon) was 2070 nM and the TGI (KM12 colon) was over 58500 nM. It also gave a GI50 (LOX IMVI melanoma) of 630 nM, a TGI (LOX IMVI melanoma) of 2370 nM and a GI50 (M14 melanoma) of 1590 nM. It also gave a TGI (M14 melanoma) of 4550 nM, a GI50 (MALME-3M melanoma) of 49.1 nM and a TGI (MALME-3M melanoma) of 700 nM. For the same molecule, the GI50 (MCF7 breast) was 537 nM, the TGI (MCF7 breast) was 3930 nM and the GI50 (MDA-MB-231 breast) was 941 nM. It also gave a TGI (MDA-MB-231 breast) of 6220 nM, a GI50 (MDA-MB-435) of 293 nM and a TGI (MDA-MB-435) of 4690 nM. It also gave a TGI (MOLT-4 leukemia) of over 100000 nM, a GI50 (NCI-H23 lung) of 2520 nM and a TGI (NCI-H23 lung) of 21900 nM. It also gave a GI50 (NCI-H460 lung) of 196 nM, a TGI (NCI-H460 lung) of 1620 nM and a GI50 (NCI-H522 lung) of 665 nM. For the same molecule, the TGI (NCI-H522 lung) was 5850 nM, the GI50 (NCI/ADR-RES ovarian) was 5190 nM and the TGI (NCI/ADR-RES ovarian) was over 27100 nM. The GI50 (OVCAR-3 ovarian) was 1450 nM, the TGI (OVCAR-3 ovarian) was 9890 nM and the GI50 (OVCAR-4 ovarian) was 2270 nM. It also gave a TGI (OVCAR-4 ovarian) of 7920 nM, a GI50 (OVCAR-5 ovarian) of 885 nM and a TGI (OVCAR-5 ovarian) of 5650 nM. It also gave a GI50 (OVCAR-8 ovarian) of 2270 nM, a TGI (OVCAR-8 ovarian) of 23400 nM and a GI50 (PC-3 prostate) of 2000 nM. The TGI (PC-3 prostate) was 27500 nM, the GI50 (RPMI-8226 leukemia) was 1590 nM and the TGI (RPMI-8226 leukemia) was over 61500 nM. The GI50 (RXF 393 renal) was 3450 nM, the TGI (RXF 393 renal) was 12700 nM and the GI50 (SF-268 CNS) was 315 nM. It also gave a TGI (SF-268 CNS) of 3970 nM, a GI50 (SF-295 CNS) of 401 nM and a TGI (SF-295 CNS) of 3310 nM. For the same molecule, the GI50 (SF-539 CNS) was 742 nM, the TGI (SF-539 CNS) was 4620 nM and the GI50 (SK-MEL-2 melanoma) was 2680 nM. For the same molecule, the TGI (SK-MEL-2 melanoma) was 8980 nM, the GI50 (SK-MEL-28 melanoma) was 1890 nM and the TGI (SK-MEL-28 melanoma) was 11200 nM. For the same molecule, the GI50 (SK-MEL-5 melanoma) was 1490 nM, the TGI (SK-MEL-5 melanoma) was 7640 nM and the GI50 (SK-OV-3 ovarian) was 1400 nM. The TGI (SK-OV-3 ovarian) was over 24700 nM, the GI50 (SN12C renal) was 662 nM and the TGI (SN12C renal) was 6390 nM. For the same molecule, the GI50 (SNB-19 CNS) was 829 nM, the TGI (SNB-19 CNS) was 20100 nM and the GI50 (SNB-75 CNS) was 3740 nM. For the same molecule, the TGI (SNB-75 CNS) was 27700 nM, the GI50 (SR leukemia) was 123 nM and the TGI (SR leukemia) was over 100000 nM. It also gave a GI50 (SW-620 colon) of 595 nM, a TGI (SW-620 colon) of over 37900 nM and a GI50 (T-47D breast) of 4850 nM. The TGI (T-47D breast) was over 100000 nM, the GI50 (TK-10 renal) was 3950 nM and the TGI (TK-10 renal) was 21500 nM. It also gave a GI50 (UACC-257 melanoma) of 1980 nM, a TGI (UACC-257 melanoma) of 11100 nM and a GI50 (UACC-62 melanoma) of 1280 nM. The TGI (UACC-62 melanoma) was 6330 nM, the GI50 (UO-31 renal) was 3140 nM and the TGI (UO-31 renal) was 23000 nM.
